ChEMBL document CHEMBL1201862, “PubChem BioAssay data set” (2004)
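In this assay, cells in 96-well plates receive the compound at five concentrations for 48 hours. Endpoints are linearly interpolated between the surrounding concentrations. GI50 = concentration required for 50% inhibition of growth.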 Calls of active or inactive are those of the source. Cut-off read from the data, not from the text of the source: active = GI50 up to about 1.1 µM and inactive = higher.

Tests used:
Assay in all cases: NCI tumour cell line growth inhibition, 48 h
[1] = test system: A498
[2] = test system: A549
[3] = test system: CCRF-CEM
[4] = test system: HCT-116
[5] = test system: HCT-15
[6] = test system: Hs-578T
[7] = test system: KM12
[8] = test system: MOLT-4
[9] = test system: NCI-H226
[10] = test system: OVCAR-3
[11] = test system: OVCAR-4
[12] = test system: OVCAR-5
[13] = test system: SF-268
[14] = test system: SF-295
[15] = test system: SK-MEL-28
[16] = test system: SK-MEL-2
[17] = test system: SNB-19
[18] = test system: SNB-75
[19] = test system: SR

| SMILES | GI50 [1] | GI50 [2] | GI50 [3] | GI50 [4] | GI50 [5] [µM] | GI50 [6] | GI50 [7] | GI50 [8] | GI50 [9] | GI50 [10] | GI50 [11] | GI50 [12] | GI50 [13] | GI50 [14] | GI50 [15] | GI50 [16] | GI50 [17] | GI50 [18] | GI50 [19] |
| --- | --- | --- | --- | --- | --- | --- | --- | --- | --- | --- | --- | --- | --- | --- | --- | --- | --- | --- | --- |
| CCCCCCCCCCCCCCCC(=O)OCC(COP(=O)(O)OCCNC(=O)CCSSc1ccccn1)OC(=O)CCCCCCCCCCCCCCC (centres undefined) | > 100 µM (inactive) | > 100 µM (inactive) | > 100 µM (inactive) | > 100 µM (inactive) | > 100 | > 100 µM (inactive) | > 100 µM (inactive) | > 100 µM (inactive) | > 100 µM (inactive) | > 100 µM (inactive) | > 100 µM (inactive) | > 100 µM (inactive) | > 100 µM (inactive) | > 100 µM (inactive) | > 100 µM (inactive) | > 100 µM (inactive) | > 100 µM (inactive) | > 100 µM (inactive) | > 100 µM (inactive) |
| C[C@@H](c1ccccc1)n1c(N)c(C#N)c2ccc([N+](=O)[O-])cc2c1=O | 6.27 µM (inactive) | > 100 µM (inactive) | 14.6 µM (inactive) | 14.4 µM (inactive) | 12.9 | 18.2 µM (inactive) | 16.7 µM (inactive) |  | 1.68 µM (inactive) |  | 14.2 µM (inactive) |  | 29.7 µM (inactive) |  | 15 µM (inactive) | > 100 µM (inactive) | 13.6 µM (inactive) | 5.51 µM (inactive) | 2.69 µM (inactive) |
| O=C1Cc2c(-c3ccc(Cl)cc3)cc(-c3ccccc3)nc2-c2ccccc2N1 | 2.07 µM (inactive) | 5.66 µM (inactive) | 6.35 µM (inactive) | 3.44 µM (inactive) | 4.85 | 7.26 µM (inactive) | 9.25 µM (inactive) | 9.53 µM (inactive) | 10.8 µM (inactive) | 11.7 µM (inactive) | 6.62 µM (inactive) | 16.2 µM (inactive) | 12.1 µM (inactive) | 6.38 µM (inactive) | 4.67 µM (inactive) | 26.6 µM (inactive) | 1.87 µM (inactive) | 3.82 µM (inactive) | 7.13 µM (inactive) |
| Nc1ccc(-c2ccc(Nc3cc(S(=O)(=O)O)c(N)c4c3C(=O)c3ccccc3C4=O)cc2)c(S(=O)(=O)O)c1 | > 100 µM (inactive) | > 100 µM (inactive) | > 100 µM (inactive) | > 100 µM (inactive) | > 100 | > 100 µM (inactive) | > 100 µM (inactive) | 41.8 µM (inactive) | > 100 µM (inactive) | > 100 µM (inactive) | > 100 µM (inactive) | > 100 µM (inactive) | > 100 µM (inactive) | > 100 µM (inactive) | > 100 µM (inactive) | > 100 µM (inactive) | > 100 µM (inactive) | > 100 µM (inactive) | > 100 µM (inactive) |
| O=C(/C=C1\C[C@H]2C=Nc3ccccc3C(=O)N2C1)NCCCNC(=O)/C=C1\C[C@H]2C=Nc3ccccc3C(=O)N2C1 | 17.5 µM (inactive) | 21.1 µM (inactive) |  | 16 µM (inactive) | 18.1 | 32 µM (inactive) | 16 µM (inactive) | 2.62 µM (inactive) | 20.7 µM (inactive) | 12 µM (inactive) | 18.2 µM (inactive) | 21.2 µM (inactive) | 16.7 µM (inactive) | 19 µM (inactive) | 18.9 µM (inactive) | 19.3 µM (inactive) | 16.4 µM (inactive) | 16.2 µM (inactive) | 2.11 µM (inactive) |
| COc1ccc(-n2c(C)nc3ccc(NC4OC(CO)C(O)C(O)C4O)cc3c2=O)cc1 (centres undefined) | > 100 µM (inactive) |  |  | > 100 µM (inactive) | > 100 | > 100 µM (inactive) | > 100 µM (inactive) | > 100 µM (inactive) | > 100 µM (inactive) | > 100 µM (inactive) | > 100 µM (inactive) | > 100 µM (inactive) | > 100 µM (inactive) | > 100 µM (inactive) | > 100 µM (inactive) | 97.5 µM (inactive) | > 100 µM (inactive) | > 100 µM (inactive) | > 100 µM (inactive) |
| Cn1c2ccccc2n2c3ncccc3c(=O)c(C#N)c12 | 10.4 µM (inactive) | 5.2 µM (inactive) | 4.07 µM (inactive) | 4.81 µM (inactive) | 6.18 | 18.9 µM (inactive) | 14.6 µM (inactive) | 3.04 µM (inactive) | 1.79 µM (inactive) | 11 µM (inactive) | 30.7 µM (inactive) | 24.5 µM (inactive) | 18 µM (inactive) | 7.69 µM (inactive) | 44.2 µM (inactive) | 35 µM (inactive) | 8.28 µM (inactive) | 12.2 µM (inactive) | 3.73 µM (inactive) |
| Cc1ccc2c(c1)C(=O)C1(Cc3ccccc3C1=O)C2 (centres undefined) | > 100 µM (inactive) | > 100 µM (inactive) | > 100 µM (inactive) | > 100 µM (inactive) | > 100 | > 100 µM (inactive) | > 100 µM (inactive) | > 100 µM (inactive) | > 100 µM (inactive) | > 100 µM (inactive) | > 100 µM (inactive) | > 100 µM (inactive) | > 100 µM (inactive) | > 100 µM (inactive) | > 100 µM (inactive) |  | > 100 µM (inactive) | 67.1 µM (inactive) | > 100 µM (inactive) |
